# Experimental data as given in patent publication US9776967B2, “Carboxamide derivatives as pesticidal compounds” (priority 2013, dated 2017).
# Where two headings read alike, the source gives them in different places.
# Columns and labels:
# [1] = tested on: Nippostrongylus brasiliensis; assay: In vitro assay with Nippostrongylus brasiliensis (NIPOBR), acetylcholine esterase readout; details: adult worms, read-out: activity (reduction of AChE compared to negative control); for inhibition at 1 ppm: 1 ppm (1 μg/ml)
# Procedure: In Vitro Assay with Nippostrongylus brasiliensis (NIPOBR)
# Adult Nippostrongylus brasiliensis were washed with saline buffer containing 100 U/ml penicillin, 0.1 mg/ml streptomycin and 2.5 μg/ml amphotericin B. Test compounds were dissolved in DMSO and worms were incubated in medium in a final concentration of 10 μg/ml (10 ppm) respectively 1 μg/ml (1 ppm). An aliquot of the medium was used to determine the acetylcholine esterase activity in comparison to a negative control. The principle of measuring acetylcholine esterase as readout for anthelmintic activity was described in Rapson et al (1986) and Rapson et al (1987).
# Cooperia curticei = assay: In vitro assay with Cooperia curticei (COOPCU), larval mortality; details: 120 h, read-out: activity (larval mortality)
# Procedure: In Vitro Assay with Cooperia curticei (COOPCU)
# (§1) Solvent: Dimethyl Sulfoxide
# (§2) To produce a suitable preparation of active compound, 10 mg of active compound are dissolved in 0.5 ml solvent, and the concentrate is diluted with “Ringer's solution” to the desired concentration.
# Approximately 40 nematode larvae (Cooperia curticei) are transferred into a test tube containing the compound solution.
# After 5 days percentage of larval mortality is recorded. 100% efficacy means all larvae are killed; 0% efficacy means no larvae are killed.
# [2] = LogP by HPLC on reversed phase columns (EEC directive 79/831 Annex V.A8); type: physicochemical
# Procedure: Calibration was done with straight-chain alkan2-ones (with 3 to 16 carbon atoms) with known Log P values (measurement of Log P values using retention times with linear interpolation between successive alkanones). Lambda-max-values were determined using UV-spectra from 200 nm to 400 nm and the peak values of the chromatographic signals.
# Haemonchus contortus = assay: In vitro assay with Haemonchus contortus (HAEMCO), larval mortality; details: 120 h; for mortality at 20 ppm: read-out: activity (larval mortality)
# Procedure: In Vitro Assay with Haemonchus contortus (HAEMCO)
# as §1, §2
# Approximately 40 larvae of the red stomach worm (Haemonchus contortus) are transferred into a test tube containing compound solution.
# After 5 days percentage of larval mortality are recorded. 100% efficacy means all larvae are killed, 0% efficacy means no larvae are killed.
# [3] = LC-UV, acidic range, 0.1% formic acid in water and acetonitrile, read-out: logP (HCOOH) [a]
# [4] = reversed-phase HPLC column, LC-UV, acidic range, 0.1% formic acid in water and acetonitrile, read-out: logP (HCOOH) [a]
SMILES,mortality at 20 ppm (Cooperia curticei) [%],"chromatographic logP [2, 3]",other results
O=C(NCC(F)(F)c1ncc(-c2ccccc2Cl)cc1Cl)c1ccccc1C(F)(F)F [Example 16],100,,inhibition at 1 ppm [1]: ≥ 60%; inhibition at 10 ppm ([1]; 10 ppm (10 μg/ml)): ≥ 60%; chromatographic logP ([2]; logP (HCOOH) [a]): 4; mortality at 20 ppm (Haemonchus contortus): 100%
CNc1ccc(-c2cnc(C(F)(F)CNC(=O)c3ccccc3C(F)(F)F)c(Cl)c2)cc1 [Example 36],,3.39,
CC(F)(CNC(=O)c1cccnc1C(F)(F)F)c1ncc(-c2ccc(Cl)cc2)cc1Cl (stereo not shown) [Example 20],,3.83,
O=C(NCC(F)(F)c1ncc(-c2ccc(F)c(C(F)(F)F)c2)cc1Cl)c1ccccc1C(F)(F)F [Example 34],,4.19,
N#Cc1ccc(-c2cnc(C(F)(F)CNC(=O)c3ccccc3C(F)(F)F)c(Cl)c2)cc1 [Example 37],,,"chromatographic logP [2, 4]: 3.29"
O=C(NCC(F)(F)c1ncc(-c2ccc(N3CCCC3)cc2)cc1Cl)c1ccccc1C(F)(F)F [Example 30],100,4.83,"mortality at 20 ppm (Haemonchus contortus; 20 ppm, after 5 days): 90%"
O=C(NCC(F)(F)c1ncc(-c2cccc(C(F)(F)F)c2)cc1Cl)c1ccccc1C(F)(F)F [Example 10],100,,inhibition at 1 ppm [1]: ≥ 60%; chromatographic logP ([2]; logP (HCOOH) [a]): 4.17; mortality at 20 ppm (Haemonchus contortus): 100%
CC(=O)Nc1ccc(-c2cnc(C(F)(F)CNC(=O)c3ccccc3C(F)(F)F)c(Cl)c2)cc1 [Example 38],,2.7,
CSc1ccc(-c2cnc(C(F)(F)CNC(=O)c3ccccc3C(F)(F)F)c(Cl)c2)cc1 [Example 35],,4.1,
CC(F)(CNC(=O)c1ccccc1C(F)(F)F)c1ncc(-c2ccccc2)cc1Cl (stereo not shown) [Example 23],,3.92,
O=C(NCC(F)(F)c1ncc(-c2ccccc2F)cc1Cl)c1ccccc1C(F)(F)F [Example 13],100,,inhibition at 1 ppm [1]: ≥ 60%; chromatographic logP ([2]; logP (HCOOH) [a]): 3.73; mortality at 20 ppm (Haemonchus contortus): 100%
"NCC(F)(F)c1ncc(-c2ccc(F)cc2)cc1Cl [INT-1, 2-[3-chloro-5-(4-fluorophenyl)-2-pyridyl]-2,2-difluoro-ethanamine]",,,"chromatographic logP [2, 4]: 1.18; chromatographic logP ([2]; reversed-phase HPLC column, LC-UV, neutral range, 0.001 molar ammonium acetate solution in water and acetonitrile, read-out: logP [b]): 2.61"
CC(F)(CNC(=O)c1cccnc1C(F)(F)F)c1ncc(-c2ccccc2)cc1Cl (stereo not shown) [Example 28],,3.38,
Cc1ccc(-c2cnc(C(C)(F)CNC(=O)c3ccccc3C(F)(F)F)c(Cl)c2)cc1 (stereo not shown) [Example 29],,4.35,
CS(=O)(=O)c1ccc(-c2cnc(C(F)(F)CNC(=O)c3ccccc3C(F)(F)F)c(Cl)c2)cc1 [Example 33],,2.65,
CN(C)c1ccc(-c2cnc(C(F)(F)CNC(=O)c3ccccc3C(F)(F)F)c(Cl)c2)cc1 [Example 17],100,4.09,"mortality at 20 ppm (Haemonchus contortus; 20 ppm, after 5 days): 100%"
"O=C(NCCc1ccc(-c2ccc(OC(F)(F)F)cc2)cc1)c1ccccc1C(F)(F)F [Ex.-No. 1-49, reference compound]",,,"Emax at 0.8 ppm (Haemonchus contortus; HAEMCO, 0.8 ppm, 5dat, comparative example, read-out: % Efficacy): 60%; Emax at 4 ppm (Haemonchus contortus; HAEMCO, 4 ppm, 5dat, comparative example, read-out: % Efficacy): 60%; Emax at 20 ppm (Haemonchus contortus; HAEMCO, 20 ppm, 5dat, comparative example, read-out: % Efficacy): 80%"
Cc1ccc(-c2cnc(C(C)(F)CNC(=O)c3cccnc3C(F)(F)F)c(Cl)c2)cc1 (stereo not shown) [Example 22],,2.15,
CN1CCN(c2ccc(-c3cnc(C(F)(F)CNC(=O)c4ccccc4C(F)(F)F)c(Cl)c3)cc2)CC1 [Example 31],100,1.78,"chromatographic logP ([2]; LC-UV, neutral range, 0.001 molar ammonium acetate solution in water and acetonitrile, read-out: logP [b]): 3.39; mortality at 20 ppm (Haemonchus contortus; 20 ppm, after 5 days): 100%"
O=C(NCC(F)(F)c1ncc(-c2ccc3c(c2)OC(F)(F)O3)cc1Cl)c1ccccc1C(F)(F)F [Example 25],,4.18,
O=C(NCC(F)(F)c1ncc(-c2ccc(SC(F)(F)F)cc2)cc1Cl)c1ccccc1C(F)(F)F [Example 39],,4.65,
O=C(NCC(F)(F)c1ncc(-c2ccc(N3CCOCC3)cc2)cc1Cl)c1ccccc1C(F)(F)F [Example 32],100,3.59,
